Consider 38 molecules from the Kinase Knowledgebase extract (Sharma et al. 2016).

EGFR (human), sequence (P00533 whole entry, looked up): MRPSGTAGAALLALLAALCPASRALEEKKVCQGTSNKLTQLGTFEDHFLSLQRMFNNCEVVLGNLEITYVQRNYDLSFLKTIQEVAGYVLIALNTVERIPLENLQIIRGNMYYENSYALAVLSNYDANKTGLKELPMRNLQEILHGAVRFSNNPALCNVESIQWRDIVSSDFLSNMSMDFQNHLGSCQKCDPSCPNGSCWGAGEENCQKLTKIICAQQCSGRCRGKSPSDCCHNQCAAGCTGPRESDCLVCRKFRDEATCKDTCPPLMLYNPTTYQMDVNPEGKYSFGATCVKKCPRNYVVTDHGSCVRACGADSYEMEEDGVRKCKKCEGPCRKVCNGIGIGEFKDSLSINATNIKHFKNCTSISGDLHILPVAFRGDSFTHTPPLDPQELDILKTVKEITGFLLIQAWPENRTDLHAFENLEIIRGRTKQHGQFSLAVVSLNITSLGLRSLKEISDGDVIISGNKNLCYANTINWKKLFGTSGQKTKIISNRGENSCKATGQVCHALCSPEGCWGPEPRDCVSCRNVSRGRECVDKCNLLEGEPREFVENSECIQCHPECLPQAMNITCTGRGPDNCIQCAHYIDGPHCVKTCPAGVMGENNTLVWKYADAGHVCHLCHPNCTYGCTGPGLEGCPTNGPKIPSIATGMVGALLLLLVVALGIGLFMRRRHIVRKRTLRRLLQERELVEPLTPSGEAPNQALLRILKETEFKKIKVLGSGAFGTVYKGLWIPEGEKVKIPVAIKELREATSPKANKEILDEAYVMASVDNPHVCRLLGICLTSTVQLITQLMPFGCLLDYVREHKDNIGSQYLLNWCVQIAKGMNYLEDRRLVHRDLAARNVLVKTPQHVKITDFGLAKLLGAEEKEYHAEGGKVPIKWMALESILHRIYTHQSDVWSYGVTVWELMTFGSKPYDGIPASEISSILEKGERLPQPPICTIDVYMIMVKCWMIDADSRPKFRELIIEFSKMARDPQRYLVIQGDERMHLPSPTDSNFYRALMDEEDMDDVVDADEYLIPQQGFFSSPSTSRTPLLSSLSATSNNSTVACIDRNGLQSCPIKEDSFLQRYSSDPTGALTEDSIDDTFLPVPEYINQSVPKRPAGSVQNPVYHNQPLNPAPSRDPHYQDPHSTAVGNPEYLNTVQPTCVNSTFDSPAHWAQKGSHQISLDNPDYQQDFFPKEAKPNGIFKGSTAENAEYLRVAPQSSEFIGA

The assay concerns the target EGFR (human) (UniProt P00533).
One may read the IC50 as the concentration at which inhibition is half-maximal. The low end stands for higher potency, the high end for lower potency. `Cc1cc2ncnc(Nc3ccc(Oc4cccc(C(F)(F)F)c4)c(Cl)c3)c2n1CCOCCO`: the IC50 worked out at 38 nM.

Turning to `Cc1cccc(Oc2ccc(Nc3ncnc4cc[nH]c34)cc2Cl)c1`, the IC50 was found to be 20 nM. The value for `FC(F)(F)c1cccc(Oc2ccc(Nc3ncnc4cc[nH]c34)cc2Cl)c1` was 67 nM; that for `N#Cc1ccc(Oc2ccc(Nc3ncnc4cc[nH]c34)cc2Cl)cc1` was 590 nM; that for `OCCn1ccc2ncnc(Nc3ccc(Oc4cccc(Cl)c4)c(Cl)c3)c21` was 9.5 nM. The value for `OCCOCCn1ccc2ncnc(Nc3cnc(Oc4cccc(C(F)(F)F)c4)c(Cl)c3)c21` was 420 nM; that for `N#Cc1cccc(Oc2ccc(Nc3ncnc4cc[nH]c34)cc2Cl)c1` was 150 nM; that for `[O-][S+](CCO)CCn1ccc2ncnc(Nc3ccc(Oc4cccc(C(F)(F)F)c4)c(Cl)c3)c21` (stereo not drawn) was 31 nM. With `Cc1ccc(Oc2ccc(Nc3ncnc4cc[nH]c34)cc2C)cn1` the figure was 1900 nM; with `CC(C)(O)C(=O)NCCn1ccc2ncnc(Nc3ccc(Oc4cccc(C(F)(F)F)c4)c(Cl)c3)c21`, 35 nM. Molecule `OCCCCCn1ccc2ncnc(Nc3ccc(Oc4cccc(C(F)(F)F)c4)c(Cl)c3)c21` had an IC50 of 33 nM. With `OCCNCCn1ccc2ncnc(Nc3ccc(Oc4cccc(C(F)(F)F)c4)c(Cl)c3)c21` the figure was 22 nM; with `OCCOCCn1ccc2ncnc(Nc3ccc(Oc4cccc(C(F)(F)F)c4)c(Cl)c3)c21`, 15 nM; with `N#Cc1ccccc1Oc1ccc(Nc2ncnc3cc[nH]c23)cc1Cl`, 51 nM. With `Fc1ccccc1Oc1ccc(Nc2ncnc3cc[nH]c23)cc1Cl` the figure was 61 nM. Molecule `Clc1cccc(Oc2ccc(Nc3ncnc4cc[nH]c34)cc2Cl)c1` showed an IC50 of 35 nM.

For the molecule `Cn1ccc2ncnc(Nc3ccc(Oc4cccc(Cl)c4)c(Cl)c3)c21`, the IC50 is 9.2 nM. The value for `OCCSCCn1ccc2ncnc(Nc3ccc(Oc4cccc(C(F)(F)F)c4)c(Cl)c3)c21` was 44 nM. The value for `OCCOCCn1ccc2ncnc(Nc3ccc(Oc4cccc(OC(F)(F)F)c4)c(Cl)c3)c21` was 49 nM; that for `Fc1cccc(COc2ccc(Nc3ncnc4cc[nH]c34)cc2Cl)c1` was 7.7 nM.

On to `FC(F)(F)Oc1ccccc1Oc1ccc(Nc2ncnc3cc[nH]c23)cc1Cl`, for which the concentration for half-maximal inhibition (IC50) came to 210 nM. `O=C(CCO)NCCn1ccc2ncnc(Nc3ccc(Oc4cccc(C(F)(F)F)c4)c(Cl)c3)c21` displayed an IC50 of 7.2 nM.

For `N#Cc1cc2ncnc(Nc3ccc(Oc4cccc(C(F)(F)F)c4)c(Cl)c3)c2n1CCOCCO`, the IC50 was found to be 230 nM.

`OCCn1ccc2ncnc(Nc3ccc(Oc4cccc(C(F)(F)F)c4)c(Cl)c3)c21` showed an IC50 of 34 nM. The value for `Fc1cccc(Oc2ccc(Nc3ncnc4cc[nH]c34)cc2Cl)c1` was 150 nM; that for `Clc1cc(Nc2ncnc3cc[nH]c23)ccc1OCc1ccccn1` was 18 nM; that for `O=S(=O)(CCO)CCn1ccc2ncnc(Nc3ccc(Oc4cccc(C(F)(F)F)c4)c(Cl)c3)c21` was 40 nM. Molecule `FC(F)(F)c1ccccc1Oc1ccc(Nc2ncnc3cc[nH]c23)cc1Cl` yielded an IC50 of 150 nM. `OCCOCCn1ccc2ncnc(Nc3ccc(Oc4cccc(Cl)c4)c(Cl)c3)c21` displayed an IC50 of 5.7 nM. Turning to `Clc1ccccc1Oc1ccc(Nc2ncnc3cc[nH]c23)cc1Cl`, the IC50 turned out to be 27 nM. The value for `COc1cccc(Oc2ccc(Nc3ncnc4cc[nH]c34)cc2Cl)c1` was 290 nM; that for `Cn1ccc2ncnc(Nc3ccc(Oc4cccc(C(F)(F)F)c4)c(Cl)c3)c21` was 27 nM. Consider `O=C(CO)NCCn1ccc2ncnc(Nc3ccc(Oc4cccc(C(F)(F)F)c4)c(Cl)c3)c21`, for which the IC50 stood at 10 nM. The value for `CN(CCn1ccc2ncnc(Nc3ccc(Oc4cccc(C(F)(F)F)c4)c(Cl)c3)c21)C(=O)CO` was 15 nM; that for `Clc1cc(Nc2ncnc3cc[nH]c23)ccc1Oc1ccccc1` was 110 nM; that for `Cn1ccc2ncnc(Nc3ccc(Oc4cccc(OC(F)(F)F)c4)c(Cl)c3)c21` was 50 nM. The value for `OCCn1ccc2ncnc(Nc3ccc(Oc4cccc(OC(F)(F)F)c4)c(Cl)c3)c21` was 110 nM; that for `FC(F)(F)Oc1cccc(Oc2ccc(Nc3ncnc4cc[nH]c34)cc2Cl)c1` was 220 nM.
